Assay results from US9815851B2, “Pyrrolo carboxamides as modulators of orphan nuclear receptor RAR-related orphan receptor-gamma (RORγ, NR1F3) activity and for the treatment of chronic inflammatory and autoimmune diseases” (PHENEX PHARMACEUTICALS AG, priority 2011, dated 2017).
Like-named read-outs stand apart in the source and are kept apart here.

Key:
[1] = molecular target: T1, RORγ ligand binding domain (LBD) (Homo sapiens, UniProt P51449); assay: TR-FRET Activity Assay (ligand sensing, RORγ-LBD / coactivator peptide interaction, LANCE); type: biochemical
T1 construct: made in house; host or cells: E. coli BL-21 (BL3), vector pDEST15
T1 sequence (P51449 269-508 limits assumed): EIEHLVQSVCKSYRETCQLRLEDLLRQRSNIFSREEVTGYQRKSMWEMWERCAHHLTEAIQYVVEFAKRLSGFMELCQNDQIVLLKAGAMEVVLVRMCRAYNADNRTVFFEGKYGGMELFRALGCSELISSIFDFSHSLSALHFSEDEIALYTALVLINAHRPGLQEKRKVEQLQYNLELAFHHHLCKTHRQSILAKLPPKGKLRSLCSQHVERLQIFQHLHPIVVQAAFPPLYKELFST

RORγ = molecular target: T2, RORγ (UniProt P51449); assay: RORγ Gal4 Reporter Gene Assay in 293T cells (firefly and renilla luciferase); type: cell-based, human
T2 sequence (P51449 1-518): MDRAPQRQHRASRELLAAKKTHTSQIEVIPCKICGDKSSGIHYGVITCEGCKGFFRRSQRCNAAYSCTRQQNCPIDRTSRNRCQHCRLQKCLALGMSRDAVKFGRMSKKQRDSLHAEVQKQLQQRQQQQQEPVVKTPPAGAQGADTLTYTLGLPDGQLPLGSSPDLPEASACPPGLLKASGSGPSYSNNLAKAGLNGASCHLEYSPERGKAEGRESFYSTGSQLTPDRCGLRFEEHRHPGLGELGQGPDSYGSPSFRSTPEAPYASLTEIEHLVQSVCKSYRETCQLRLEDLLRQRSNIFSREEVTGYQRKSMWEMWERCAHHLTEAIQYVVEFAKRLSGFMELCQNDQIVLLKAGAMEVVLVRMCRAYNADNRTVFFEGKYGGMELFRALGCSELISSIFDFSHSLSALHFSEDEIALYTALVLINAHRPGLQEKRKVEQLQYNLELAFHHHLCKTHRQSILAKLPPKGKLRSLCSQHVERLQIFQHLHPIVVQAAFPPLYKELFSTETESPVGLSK

[2] = first value of the cell FRET/FF/REN, TR-FRET activity assay, read-out: pIC50 (FRET) (converted)
[3] = second value of the cell, Gal4 reporter gene assay in 293T cells, firefly luciferase
[4] = third value of the cell, Gal4 reporter gene assay in 293T cells, renilla normalised luciferase

IC50 [1, 2] [nM] | pIC50 (FF) (RORγ; [3]) | pIC50 (REN) (RORγ; [4]) | Structure (SMILES) | IC50 [1] [nM] | pIC50 (FF) (RORγ) | pIC50 (REN) (RORγ)
316 | 6.8 | 6.9 | Cc1c(C(=O)NC2COC2)cc(-c2cc(C(C)(C)C)cc(C(C)(C)C)c2)n1S(=O)(=O)N1CCCCC1 [Example 7, 5-(3,5-Di-tert-butylphenyl)-2-methyl-N-(oxetan-3-yl)-1-(piperidin-1-ylsulfonyl)-1H-pyrrole-3-carboxamide] | – | – | –
251 | 6.5 | 6.5 | Cc1c(C(=O)NCC(C)(C)C(=O)N2CCOCC2)cc(-c2cc(C(C)(C)C)c3c(c2)C2(CCO3)CC2)n1CC1CCCCC1 [Example 11, 5(8-(tert-Butyl)spiro[chroman-4,1′-cyclopropan]-6-yl)-1-(cyclohexylmethyl)-N-(2,2-dimethyl-3-morpholino-3-oxopropyl)-2-methyl-1H-pyrrole-3-carboxamide] | – | – | –
251 | 7.3 | 7.3 | CNC(=O)C(C)(C)CNC(=O)c1cc(-c2cc(C(C)(C)C)c3c(c2)C2(CCO3)CC2)n(CC2CCCCC2)c1C [Example 11/1] | – | – | –
1000 | 6.1 | 6.2 | Cc1c(C(N)=O)cc(-c2cc(C3CC3)cc(C(C)(C)C)c2)n1CC1CCCCC1 [Example 12, 5-(3-(tert-Butyl)-5-cyclopropylphenyl)-1-(cyclohexylmethyl)-2-methyl-1H-pyrrole-3-carboxamide] | – | – | –
398 | 7.4 | 7.5 | CC(C)(C)NS(=O)(=O)c1ccc(-c2cc(C(=O)NC3CCOCC3)c(F)n2CC2CCCCC2)cc1C(C)(C)C [Example 20, 5-(3-(tert-Butyl)-4-(N-(tert-butyl)sulfamoyl)phenyl)-1-(cyclohexylmethyl)-2-fluoro-N-(tetrahydro-2H-pyran-4-yl)-1H-pyrrole-3-carboxamide] | – | – | –
1260 | 6.6 | 6.9 | Cc1c(C(=O)NC2CCOCC2)cc(-c2ccc(S(=O)(=O)NC(C)(C)C)c(C(F)(F)F)c2)n1CC1(F)CCCCC1 [Example 28, 5-(4-(N-(tert-Butyl)sulfamoyl)-3-(trifluoromethyl)phenyl)-1-((1-fluorocyclohexyl)-methyl)-2-methyl-N-(tetrahydro-2H-pyran-4-yl)-1H-pyrrole-3-carboxamide] | – | – | –
3980 | 7.2 | 7.2 | Cc1c(C(=O)N[C@H]2C[C@H](C(=O)O)C2)c(Cl)c(-c2cc(C(C)(C)C)cc(C3(C)CC3)c2)n1CC1CCCCC1 [Example 29, (trans)-3-(5-(3-(tert-Butyl)-5-(1-methylcyclopropyl)phenyl)-4-chloro-1-(cyclohexylmethyl)-2-methyl-1H-pyrrole-3-carboxamido)cyclobutanecarboxylic acid] | – | – | –

Further lines, the compound ahead of its results:

Structure (SMILES) | IC50 [1, 2] [nM] | pIC50 (FF) (RORγ; [3]) | pIC50 (REN) (RORγ; [4]) | IC50 [1] [nM] | pIC50 (FF) (RORγ) | pIC50 (REN) (RORγ)
Cc1c(C(=O)NC2COC2)cc(-c2cc(C(=O)NC(C)(C)C)nc(C(C)(C)C)c2)n1CC1CCCCC1 [Example 6, N,6-Di-tert-butyl-4-(1-(cyclohexylmethyl)-5-methyl-4-(oxetan-3-ylcarbamoyl)-1H-pyrrol-2-yl)picolinamide] | – | – | – | 631 | 6.2/6.3/6.4 | 6.2/6.3/6.4
Cc1c(C(=O)NCC2(C)COC2)cc(-c2cc(S(=O)(=O)N3CCCCC3)c3ccccn23)n1CC1CCCCC1 [Example 8, 1-(Cyclohexylmethyl)-2-methyl-N-((3-methyloxetan-3-yl)methyl)-5-(1-(piperidin-1-ylsulfonyl)indolizin-3-yl)-1H-pyrrole-3-carboxamide] | 3980 | 7.2 | 7.2 | – | – | –
Cc1c(C(=O)NC2COC2)cc(-c2cc(C(=O)N3CCCCC3)c3ccccn23)n1CC1CCCCC1 [Example 10/1] | 15800 | 6.7 | 6.6 | – | – | –
Cc1c(C(=O)NC2COC2)cc(-c2cc(C(=O)NC(C)(C)C)cc(C(F)(F)F)c2)n1CC1CCCCC1 [Example 15, 5-(3-(tert-Butylcarbamoyl)-5-(trifluoromethyl)phenyl)-1-(cyclohexylmethyl)-2-methyl-N-(oxetan-3-yl)-1H-pyrrole-3-carboxamide] | – | – | – | 501 | 6.3/6.9/6.9 | 6.3/6.9/6.9
Cc1c(C(=O)NC2CCOCC2)cc(-c2ccc(S(N)(=O)=O)c(C(F)(F)F)c2)n1CC1CCCCC1 [Example 19, 1-(Cyclohexylmethyl)-2-methyl-5-(4-sulfamoyl-3-(trifluoromethyl)phenyl)-N-(tetrahydro-2H-pyran-4-yl)-1H-pyrrole-3-carboxamide] | 12600 | 6.6 | 6.4 | – | – | –
CC(C)(C)NS(=O)(=O)c1ccc(-c2cc(C(=O)NCCC(C)(C)C(=O)O)c(Cl)n2CC2CCCCC2)cc1C(F)(F)F [Example 22, 4-(5-(4-(N-(tert-Butyl)sulfamoyl)-3-(trifluoromethyl)phenyl)-2-chloro-1-(cyclohexylmethyl)-1H-pyrrole-3-carboxamido)-2,2-dimethylbutanoic acid] | 398 | 7.5 | 7.6 | – | – | –
CC(C)(C)NS(=O)(=O)c1ccc(-c2c(Cl)c(C(=O)NC3CCOCC3)c(Cl)n2CC2CCCCC2)c2ccccc12 [Example 23, 5-(4-(N-(tert-Butyl)sulfamoyl)naphthalen-1-yl)-2,4-dichloro-1-(cyclohexylmethyl)-N-(tetrahydro-2H-pyran-4-yl)-1H-pyrrole-3-carboxamide] | – | – | – | 200 | 6.7/8.5/8.5 | 6.7/8.5/8.5
Cc1c(C(=O)NC2CCOCC2)cc(C2=NN(C(=O)NC(C)(C)C)C3(CCCCC3)C2)n1CC1CCCCC1 [Example 24, N-(tert-Butyl)-3-(1-(cyclohexylmethyl)-5-methyl-4-((tetrahydro-2H-pyran-4-yl)carbamoyl)-1H-pyrrol-2-yl)-1,2-diazaspiro[4.5]dec-2-ene-1-carboxamide] | 3160 | 6.4 | 6.4 | – | – | –
Cc1c(C(=O)NC2CCOCC2)cc(-c2ccc(C(NC(C)(C)C)C(F)(F)F)c(C(F)(F)F)c2)n1CC1CCCCC1 (stereo not drawn) [Example 25] | 1580 | 6.3 | 6.2 | – | – | –
Cc1c(C(=O)NC2CCOCC2)cc(-c2ccc(-c3ccnn3C(C)C)c(C(C)(C)C)c2)n1CC1CCCCC1 [Example 26, 5-(3-(tert-Butyl)-4-(1-isopropyl-1H-pyrazol-5-yl)phenyl)-1-(cyclohexylmethyl)-2-methyl-N-(tetrahydro-2H-pyran-4-yl)-1H-pyrrole-3-carboxamide] | 200 | 7.5 | 7.6 | – | – | –
Cc1c(C(=O)NC2CCOCC2)cc(-c2ccc(-c3ccnn3C(C)C)c(C(C)(C)O)c2)n1CC1CCCCC1 [Example 27, 1-(Cyclohexylmethyl)-5-(3-(2-hydroxypropan-2-yl)-4-(1-isopropyl-1H-pyrazol-5-yl)phenyl)-2-methyl-N-(tetrahydro-2H-pyran-4-yl)-1H-pyrrole-3-carboxamide] | 2000 | 6.4 | 6.5 | – | – | –
Cc1c(C(=O)NC2CCOCC2)cc(-c2cc(C(C)(C)O)c3c(c2)C2(CCO3)CC2)n1CC1CCCCC1 [Example 31, 1-(Cyclohexylmethyl)-5-(8-(2-hydroxypropan-2-yl)spiro[chroman-4,1′-cyclopropan]-6-yl)-2-methyl-N-(tetrahydro-2H-pyran-4-yl)-1H-pyrrole-3-carboxamide] | 1260 | 6.9 | 6.9 | – | – | –
Cc1c(C(=O)NC2CCOCC2)cc(-c2ccc(CN3CCOCC3)c(C(F)(F)F)c2)n1CC1CCCCC1 [Example 33, 1-(Cyclohexylmethyl)-2-methyl-5-(4-(morpholinomethyl)-3-(trifluoromethyl)phenyl)-N-(tetrahydro-2H-pyran-4-yl)-1H-pyrrole-3-carboxamide] | 3160 | 6.2 | 6.3 | – | – | –
Cc1c(C(=O)NC2CCOCC2)cc(-c2ccc(CN3CCOCC3(C)C)c(C(F)(F)F)c2)n1CC1CCCCC1 [Example 34, 1-(Cyclohexylmethyl)-5-(4-((3,3-dimethylmorpholino)methyl)-3-(trifluoromethyl)phenyl)-2-methyl-N-(tetrahydro-2H-pyran-4-yl)-1H-pyrrole-3-carboxamide] | 398 | 6.8 | 7.1 | – | – | –
